Values joined by “and” are separate entries in the source; they are usually repeats but may differ in a detail not shown here. Equal values may be shown once. Where a name gives a salt, the structure may show the parent alone. Read-outs that look alike come from different tables or passages of the source.
Key:
MCF-7 cells = assay: MTT antiproliferation assay, MCF-7; format: cell-based, human; conditions: for IC50: Homo sapiens, MCF7, 48 h, MTT
Procedure: (§1) Cancerous cell lines (MCF-7: human breast adenocarcinoma cells; HepG2: human hepatocellular carcinoma cells; Caco-2: human epithelial colorectal adenocarcinoma cells; A549: human epithelial lung adenocarcinoma cells), obtained from the American Type Culture Collection (ATCC) (Rockville, MD, United States of America), were cultured in Dulbecco’s Modified Eagle’s Medium (DMEM) high glucose (4.5 g/L) containing L-glutamine (4 mM) and sodium-pyruvate (Hyclone™) supplemented with 10% (v/v) fetal bovine serum (FBS) (Capricorn Scientific GmbH, South America), and incubated at 37°C with 5% CO2 in a humidified environment. African green monkey (Vero) kidney cells (also obtained from ATCC), a non-cancerous cell line, were grown in DMEM high glucose (4.5 g/L) containing L-glutamine (Lonza, Belgium) and supplemented with 5% FBS (Capricorn Scientific GmbH, South America) and 1% gentamicin (Virbac, RSA) in the same environment as cancer cells. The RAW 264.7 murine macrophage cells (obtained from ATCC) were cultured in DMEM high glucose (4.5 g/L) containing L-glutamine (Lonza, Belgium), supplemented with 10% FBS (Capricorn Scientific GmbH, South America) and 1% penicillin/streptomycin/fungizone (PSF) solution, and kept at 37°C in a 5% CO2 humidified environment.
(§2) The cancerous and non-cancerous cells were seeded at a density of 10^4 cells per well in 96-well microtiter plates, and they were incubated overnight at 37°C with 5% CO2 in a 5% CO2 humidified environment in order to allow the attachment of cells at the bottom of the plates. Then, the cells were exposed to increasing concentrations of compounds (100, 50, 25, 10 and 5 μg/mL) dissolved in dimethyl sulfoxide (DMSO) and further diluted in fresh culture medium. In this assay, the final concentration of DMSO in the culture medium was 0.5% used as negative control while doxorubicin hydrochloride (Pfizer, United States of America) was used as a positive control. The culture plates were incubated for 48 h at 37°C in a 5% CO2 humidified environment, after which the culture medium was discarded, and replaced by 200 µL of fresh culture medium with 30 µL of 3-(4,5-dimethylthiazol-2-yl)-2,5-diphenyl-2H-tetrazolium bromide (MTT) (5 mg/mL) dissolved in phosphate buffered saline ([Mosmann, 1983]). After 4 h of incubation, the medium was gently removed, and the formazan crystals were solubilized in 50 µL of DMSO. The absorbance was measured at 570 nm after shaking for 1 min on a microplate reader (Synergy Multi-Mode Reader, BioTek, Winooski, United States of America).
(§3) The cell viability rate was determined at each concentration of the compound as a percentage of cells treated with DMSO at 0.5% used as negative control. […] The selectivity index (Supporting Material) values were calculated for each compound by dividing the IC50 of non-cancerous cells by the IC50 of cancerous cells in the same units ([Mfotie Njoya et al., 2018]; [Mfotie Njoya et al., 2020]).

15-LOX = biological target: T1, 15-LOX (Glycine max, UniProt P08170); assay: Soybean 15-LOX inhibitory assay (FOX); format: biochemical; conditions: linoleic acid 140 μM, pH 7.4, 25°C
T1 construct: purchased Merck, Darmstadt, Germany
T1 sequence (P08170 1-839): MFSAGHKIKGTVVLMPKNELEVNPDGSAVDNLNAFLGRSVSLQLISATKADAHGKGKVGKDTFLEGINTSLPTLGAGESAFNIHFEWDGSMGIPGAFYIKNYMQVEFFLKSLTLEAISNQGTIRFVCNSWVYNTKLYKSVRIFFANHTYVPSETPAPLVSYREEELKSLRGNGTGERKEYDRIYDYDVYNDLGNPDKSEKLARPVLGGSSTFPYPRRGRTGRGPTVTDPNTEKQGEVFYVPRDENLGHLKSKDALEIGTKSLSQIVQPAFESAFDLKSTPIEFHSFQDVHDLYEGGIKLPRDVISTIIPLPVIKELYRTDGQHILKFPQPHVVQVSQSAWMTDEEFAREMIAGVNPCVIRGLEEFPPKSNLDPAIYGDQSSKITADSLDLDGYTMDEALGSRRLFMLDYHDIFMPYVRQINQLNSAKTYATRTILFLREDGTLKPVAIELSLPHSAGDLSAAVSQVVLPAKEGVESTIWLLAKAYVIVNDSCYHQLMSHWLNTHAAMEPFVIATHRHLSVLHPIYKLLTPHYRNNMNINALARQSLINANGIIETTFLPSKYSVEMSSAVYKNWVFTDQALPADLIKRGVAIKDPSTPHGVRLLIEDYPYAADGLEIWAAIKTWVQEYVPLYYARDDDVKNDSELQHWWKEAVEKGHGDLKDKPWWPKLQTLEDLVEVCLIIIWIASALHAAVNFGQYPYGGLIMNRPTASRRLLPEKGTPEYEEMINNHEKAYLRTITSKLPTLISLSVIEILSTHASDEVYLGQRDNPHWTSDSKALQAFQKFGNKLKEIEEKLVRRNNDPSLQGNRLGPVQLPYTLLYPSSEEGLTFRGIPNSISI
Procedure: This assay is based on the formation of the Fe^3+/xylenol orange (FOX) complex with maximal absorption at 560 nm ([Pinto et al., 2007]). Forty microliters of 15-LOX (final concentration: 200 UI/mL) from Glycine max (Merck, Darmstadt, Germany) was incubated with 20 µL of tested samples (100, 50, 25, 10, and 5 μg/mL) at 25°C for 5 min, with DMSO at 10% (v/v) being used as negative control. Thereafter, 40 µL of linoleic acid (final concentration, 140 μM) prepared in Tris-HCl buffer (50 mM, pH 7.4) was added, and the plates were further incubated at 25°C for 20 min in the dark. The assay was terminated by adding 100 μL of FOX reagent [sulfuric acid (30 mM), xylenol orange (100 μM), ferrous II) sulfate (100 μM), dissolved in methanol/water (9:1)], followed by the incubation of the plates at 25°C for 30 min in the dark. Finally, the absorbance was measured at 560 nm on a microplate reader (Epoch, BioTek, Winooski, United States of America). The blanks were made in the same way as tested samples except that the substrate was added after the FOX reagent. The 15-LOX inhibitory activity was calculated by using the following formula: 15−LOX inhibitory activity %=100−Abs sample−Abs blank/Abs negative control−Abs blank×100 (1)

A549 cells = assay: MTT antiproliferation assay, A549; format: cell-based, human; conditions: for IC50: Homo sapiens, A549, 48 h, MTT
Procedure: as §1, §2, §3

Vero cells = assay: MTT antiproliferation assay, non-cancerous Vero cells; format: cell-based, African green monkey; conditions: Chlorocebus sabaeus, Vero; 48 h, MTT
Procedure: as §1, §2, §3

HepG2 cells = assay: MTT antiproliferation assay, HepG2; format: cell-based, human; conditions: for IC50: Homo sapiens, HepG2, 48 h, MTT; for SI values HepG2: IC50 of non-cancerous Vero cells divided by IC50 of HepG2
Procedure: as §1, §2, §3

[1] = system: NO production in LPS-stimulated RAW 264.7 cells; assay: Nitric oxide production inhibitory assay (Griess) in LPS-stimulated RAW 264.7 cells; format: cell-based, murine; conditions: Mus musculus, RAW264.7; LPS (2 μg/mL), 24 h
Procedure: as §1
Nitric oxide (NO) production was evaluated in lipopolysaccharide (LPS)-stimulated RAW 264.7 cells by measuring the influence of tested compounds on the accumulation of nitrite, an indicator of NO in the cell supernatant, which can be detected with Griess reagent (Merck, Darmstadt, Germany). Briefly, the RAW 264.7 cells at their exponential growth phase were seeded at a density of 2×10^4 cells per well in 96 well-microtiter plates, and they were incubated overnight at 37°C in a 5% CO2 humidified environment to allow attachment. […] Then, culture medium containing LPS (2 μg/mL) was added to each well and further incubated for 24 h at 37°C in a 5% CO2 humidified environment. Thereafter, 100 μL of cell supernatant from each well were transferred into a new 96-well microtiter plate and an equal volume of Griess reagent was added according to protocol described by the manufacturer. The microtiter plate was incubated for 10 min in the dark at room temperature, and the absorbance of the mixture was measured at 550 nm on a microplate reader (Synergy Multi-Mode Reader, BioTek, Winooski, United States of America). The quantity of nitrite was determined from a sodium nitrite standard curve, and the percentage of NO production was calculated based on the ability of each tested sample to inhibit nitric oxide production by LPS-stimulated RAW 264.7 cells compared to the control (cells treated with LPS without samples which was considered as 100% NO production). Additionally, the cell viability of treated cells was determined by using the MTT assay as previously described ([Mosmann, 1983]).

Caco-2 cells = assay: MTT antiproliferation assay, Caco-2; format: cell-based, human; conditions: for IC50: Homo sapiens, Caco-2, 48 h, MTT
Procedure: as §1, §2, §3

[2] = read-out: IC50 values 15-LOX (converted)

| Structure (SMILES) | IC50 (MCF-7 cells) | IC50 (15-LOX; [2]) | IC50 (A549 cells) | IC50 (HepG2 cells) | IC50 [1] | IC50 (Caco-2 cells) | IC50 (Vero cells) | SI values HepG2 (HepG2 cells) | IC50 (15-LOX; IC50 values 15-LOX) [µM] | SI values MCF7 (MCF-7 cells; IC50 of non-cancerous Vero cells divided by IC50 of MCF-7) | SI values A549 (A549 cells; IC50 of non-cancerous Vero cells divided by IC50 of A549) | SI values Caco-2 (Caco-2 cells; IC50 of non-cancerous Vero cells divided by IC50 of Caco-2) |
| --- | --- | --- | --- | --- | --- | --- | --- | --- | --- | --- | --- | --- |
| C[C@H]1[C@H](C)CC[C@]2(C(=O)O)CC[C@]3(C(=O)O)C(=CC[C@@H]4[C@@]5(C)CC[C@H](O)C(C)(C)[C@@H]5CC[C@]43C)[C@H]12 [Compound 8, quinovic acid] | 98 µg/mL and 201 µM |  | 204 µM and 99.5 µg/mL | 100 µg/mL and 205 µM | 86 µg/mL and 177 µM | 81.6 µg/mL and 168 µM | > 100 µg/mL and > 205 µM |  | 71.9 |  |  |  |
| COc1cccc2c1C(=O)c1c(O)c3c(c(O)c1C2=O)C[C@@](O)(C(=O)CO)C[C@@H]3O[C@H]1C[C@H](N)[C@H](O)[C@H](C)O1 [Doxorubicin, doxorubicin hydrochloride, reference compound] | 1.09 ± 0.06 µM |  | 0.71 ± 0.05 µM | 0.56 ± 0.05 µM |  | 4.97 ± 0.74 µM | 4.85 ± 0.51 µM | 8.66 |  | 4.45 | 6.83 | 0.98 |
| O=c1c(O)c(-c2ccc(O)c(O)c2)oc2cc(O)cc(O)c12 [Quercetin, quercetin, reference compound] |  |  |  |  | 12.8 µg/mL and 42.5 µM |  |  |  |  |  |  |  |

More lines, main results first:

| IC50 (MCF-7 cells) | IC50 (15-LOX; [2]) | IC50 (A549 cells) | IC50 (HepG2 cells) | IC50 [1] | IC50 (Caco-2 cells) | Structure (SMILES) | IC50 (Vero cells) | SI values HepG2 (HepG2 cells) | IC50 (15-LOX; IC50 values 15-LOX) [µM] | SI values MCF7 (MCF-7 cells; IC50 of non-cancerous Vero cells divided by IC50 of MCF-7) | SI values A549 (A549 cells; IC50 of non-cancerous Vero cells divided by IC50 of A549) | SI values Caco-2 (Caco-2 cells; IC50 of non-cancerous Vero cells divided by IC50 of Caco-2) |
| --- | --- | --- | --- | --- | --- | --- | --- | --- | --- | --- | --- | --- |
| > 100 µg/mL and > 187 µM | 42.4 µM and 41.2 µM | > 187 µM and > 100 µg/mL | 80 µg/mL and 150 µM | > 100 µg/mL and > 187 µM | > 100 µg/mL and > 187 µM | C[C@@H]1CC[C@]2(C(=O)O)CC[C@]3(C(=O)O)C(=CCC4[C@@]5(C)CC[C@H](O)C(CO)(CO)C5CC[C@]43C)C2[C@H]1C (stereo partly shown) [Compound 3, chletric acid] | > 100 µg/mL and > 187 µM |  |  |  |  |  |
| 81.3 µg/mL and 191 µM | > 234 µM | 177 µM and 75.6 µg/mL | 54.2 µg/mL and 127 µM | > 100 µg/mL and > 234 µM | > 100 µg/mL and > 234 µM | CC1(C)CC[C@]2(C)CC=C3[C@]4(C)CC[C@H]5C(C)(C)[C@@H](O)CC[C@]5(C)[C@H]4CC[C@@]3(C)[C@@H]2C1 [Compound 4, taraxerol] | > 100 µg/mL and > 234 µM |  |  |  |  |  |
| 82.8 µg/mL and 194 µM | > 234 µM | 217 µM and 92.7 µg/mL | 84.5 µg/mL and 198 µM | > 100 µg/mL and > 234 µM | > 100 µg/mL and > 234 µM | C[C@H]1[C@H](C)CC[C@]2(C)CC[C@]3(C)C(=CC[C@@H]4[C@@]5(C)CC[C@H](O)C(C)(C)[C@@H]5CC[C@]43C)[C@H]12 [Compound 5, α-amyrin (3β-hydroxy-urs-12-en-3-ol)] | > 100 µg/mL and > 234 µM |  |  |  |  |  |
| > 100 µg/mL and > 226 µM | 147 µM | > 226 µM and > 100 µg/mL | 73.9 µg/mL and 167 µM | 95.6 µg/mL and 216 µM | > 100 µg/mL and > 226 µM | CC1(C)CC[C@]2(CO)CC[C@]3(C)C(=CC[C@@H]4[C@@]5(C)CC[C@H](O)C(C)(C)[C@@H]5CC[C@]43C)[C@@H]2C1 [Compound 7, erythrodiol] | 84 µg/mL and 190 µM | 1.13 |  |  |  |  |

— article PMC10320002, “In vitro antiproliferative, anti-inflammatory effects and molecular docking studies of natural compounds isolated from Sarcocephalus pobeguinii (Hua ex Pobég)” (Frontiers in Pharmacology, 2023)
